Data reported in US7320979B2, “N-[(piperazinyl)hetaryl]arylsulfonamide compounds” (Abbott GmbH & Co. KG., priority 2003, dated 2008).

Columns and labels:
[1] = target: T1, human dopamine D3 receptors (Homo sapiens, UniProt P35462); test: Dopamine D3 receptor binding, displacement of [125I]-iodosulpride; conditions: membranes of HEK-293 cells stably expressing human D3 receptors; 0.1 nM [125I]-iodosulpride; 25° C., 60 minutes
T1 construct: expressed in transfected cells; host or cells: HEK-293
Description: (§1) The substance to be tested was either dissolved in methanol/Chremophor® (BASF-AG) or in dimethyl sulfoxide and then diluted with water to the desired concentration.
(§2) Each assay mixture was run in triplicate.
The incubation buffer contained 50 mM tris, 120 mM NaCl, 5 mM KCl, 2 mM CaCl2, 2 mM MgCl2 and 0.1% bovine serum albumin, 10 μM […] and 0.1% ascorbic acid (prepared fresh daily). The buffer was adjusted to pH 7.4 with HCl.
(§3) After having been incubated at 25° C. for 60 minutes, the assay mixtures were filtered through a Whatman GF/B glass fiber filter under vacuum using a cell collecting device. The filters were transferred to scintillation viols using a filter transfer system. After 4 ml of Ultima Gold® (Packard) have been added, the samples were shaken for one hour and the radioactivity was then counted in a Beta-Counter (Packard, Tricarb 2000 or 2200CA). The cpm values were converted into dpm using a standard quench series and the program belonging to the instrument.
(§4) The inhibition curves were analyzed by means of iterative nonlinear regression analysis using the Statistical Analysis System (SAS) which is similar to the “LIGAND” program described by Munson and Rodbard.

[2] = target: T2, human dopamine D2L receptors (long isoform) (Homo sapiens, UniProt P14416); test: Dopamine D2L receptor binding, displacement of [125I] iodospiperone; conditions: footnote: ratio of the Ki values of the D3 and D2L binding tests
T2 construct: expressed in transfected cells; host or cells: HEK-293
Description: as §1, §2
The incubation buffer contained 50 mM tris, 120 mM NaCl, 5 mM KCl, 2 mM CaCl2, 2 mM MgCl2 and 0.1% bovine serum albumin. The buffer was adjusted to pH 7.4 with HCl.
as §3, §4

T2 sequence (P14416 whole entry, canonical isoform): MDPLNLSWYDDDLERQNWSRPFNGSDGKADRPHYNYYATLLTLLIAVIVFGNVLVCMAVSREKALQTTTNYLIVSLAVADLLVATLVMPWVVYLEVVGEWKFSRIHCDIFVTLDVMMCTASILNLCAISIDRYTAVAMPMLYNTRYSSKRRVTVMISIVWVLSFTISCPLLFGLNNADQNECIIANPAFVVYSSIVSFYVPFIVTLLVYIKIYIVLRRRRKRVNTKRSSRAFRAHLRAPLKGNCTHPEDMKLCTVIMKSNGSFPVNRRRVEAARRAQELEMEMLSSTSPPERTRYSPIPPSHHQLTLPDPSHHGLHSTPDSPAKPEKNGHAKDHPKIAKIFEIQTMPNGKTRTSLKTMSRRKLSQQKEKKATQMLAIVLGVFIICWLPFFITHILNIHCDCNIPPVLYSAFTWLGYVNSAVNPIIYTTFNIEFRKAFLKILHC
T1 sequence (P35462 whole entry): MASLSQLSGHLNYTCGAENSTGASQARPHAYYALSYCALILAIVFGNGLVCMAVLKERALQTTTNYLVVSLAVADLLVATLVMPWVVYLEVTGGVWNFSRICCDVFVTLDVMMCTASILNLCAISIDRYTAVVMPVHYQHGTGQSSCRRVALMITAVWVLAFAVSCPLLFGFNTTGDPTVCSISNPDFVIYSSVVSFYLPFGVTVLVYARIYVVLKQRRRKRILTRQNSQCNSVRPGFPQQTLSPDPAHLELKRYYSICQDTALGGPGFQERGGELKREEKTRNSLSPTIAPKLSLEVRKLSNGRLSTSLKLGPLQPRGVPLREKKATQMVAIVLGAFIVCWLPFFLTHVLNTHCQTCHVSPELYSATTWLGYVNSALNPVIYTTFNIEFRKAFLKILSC

Row | SMILES | Ki [1] [nM] | Selectivity vs. D2L [2]
1 | CCN1CCN(c2ccc(NS(=O)(=O)c3ccc(C(C)C)cc3)cn2)CC1.Cl [Example 11, N-[6-(4-Ethylpiperazin-1-yl)pyridin-3-yl]-4-isopropylbenzenesulfonamide hydrochloride] | 6.2 | 77
2 | CCCN1CCN(c2ncc(NS(=O)(=O)c3ccc(C(C)C)cc3)cn2)C[C@@H]1C.Cl [Example 56, 4-Isopropyl-N-[2-((S)-3-methyl-4-propyl-piperazin-1-yl)-pyrimidin-5-yl]-benzenesulfonamide, hydrochloride] | 1.6 | 399
3 | C=CCN1CCN(c2ccc(NS(=O)(=O)c3ccc(C(C)C)cc3)c(C)n2)CC1 [Example 43] | 1.1 | 80
